Assay results published in PubChem BioAssay AID330 (DTP/NCI, 2004).
“And” between values parts separate entries of the source, which are not always exact repeats. Equal values may be shown once. Inconclusive results and toxic doses are left out.

Tested on: P388 leukemia ip, CD2F1 mice, survival T/C
Test: NCI In Vivo Anticancer Drug Screen. Data for tumor model P388 Leukemia (intraperitoneal) in CD2F1 (CDF1) mice
Settings: endpoint: median survival time, higher = longer survival
Procedure, shortened: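 Mice carrying the transplanted tumor received test compound or vehicle. Survival was recorded in each group, and the value is the treated-group measurement divided by that of the vehicle-treated control group.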

[1] = dose: 15.0 mg/kg/injection, schedule: Q01DX009 (ip), vehicle: saline
[2] = dose: 50.0 mg/kg/injection, schedule: Q01DX009 (ip), vehicle: saline
[3] = dose: 100.0 mg/kg/injection, schedule: Q01DX009 (ip), vehicle: saline
[4] = dose: 200.0 mg/kg/injection, schedule: Q01DX009 (ip), vehicle: saline
[5] = dose: 50.0 mg/kg/injection, schedule: Q01DX005 (ip), vehicle: saline with Tween-80
[6] = dose: 100.0 mg/kg/injection, schedule: Q01DX005 (ip), vehicle: saline with Tween-80
[7] = dose: 60.0 mg/kg/injection, schedule: Q01DX005 (ip), vehicle: saline with Tween-80
[8] = dose: 120.0 mg/kg/injection, schedule: Q01DX005 (ip), vehicle: saline with Tween-80
[9] = dose: 240.0 mg/kg/injection, schedule: Q01DX005 (ip), vehicle: saline with Tween-80

## CCN(c1ccccc1)c1cc2c(cc1[N+](=O)[O-])no[n+]2[O-]
dose: 1.87 mg/kg/injection, schedule: Q01DX009 (ip), vehicle: saline
  T/C: 101 % of control
dose: 3.75 mg/kg/injection, schedule: Q01DX009 (ip), vehicle: saline
  T/C: 91 % of control
dose: 7.5 mg/kg/injection, schedule: Q01DX009 (ip), vehicle: saline
  T/C: 90 % of control and 97 % of control
[1]
  T/C: 103 % of control and 91 % of control
dose: 30.0 mg/kg/injection, schedule: Q01DX009 (ip), vehicle: saline
  T/C: 93 % of control

## O=C1CCC([N+](=O)[O-])([N+](=O)[O-])CO1
dose: 100.0 mg/kg/injection, schedule: Q01DX001 (ip), vehicle: saline with Tween-80
  T/C: 111 % of control
dose: 200.0 mg/kg/injection, schedule: Q01DX001 (ip), vehicle: saline with Tween-80
  T/C: 106 % of control
dose: 400.0 mg/kg/injection, schedule: Q01DX001 (ip), vehicle: saline with Tween-80
  T/C: 113 % of control

## C#CC(C)OC (stereo not drawn)
[2]
  T/C: 96 % of control
[3]
  T/C: 90 % of control
[4]
  T/C: 86 % of control

## CC1CC23C4CCCN2CC2OC2C13C1CC4OC1=O (stereo not drawn)
dose: 12.5 mg/kg/injection, schedule: Q01DX009 (ip), vehicle: Klucel (hydroxypropylcellulose) (HPC)
  T/C: 114 % of control
dose: 25.0 mg/kg/injection, schedule: Q01DX009 (ip), vehicle: Klucel (hydroxypropylcellulose) (HPC)
  T/C: 113 % of control
dose: 50.0 mg/kg/injection, schedule: Q01DX009 (ip), vehicle: Klucel (hydroxypropylcellulose) (HPC)
  T/C: 115 % of control
dose: 100.0 mg/kg/injection, schedule: Q01DX009 (ip), vehicle: Klucel (hydroxypropylcellulose) (HPC)
  T/C: 113 % of control

## Cc1ccc(/C=C/C(=O)C(C)CN(C)C)cc1C (stereo not drawn)
dose: 50.0 mg/kg/injection, schedule: Q01DX005 (ip), vehicle: saline
  T/C: 106 % of control
dose: 100.0 mg/kg/injection, schedule: Q01DX005 (ip), vehicle: saline
  T/C: 109 % of control

## NCC(=O)OCN1C(=O)C2C3C=CC(C2C1=O)C1C2C(=O)N(COC(=O)CN)C(=O)C2C31 (stereo not drawn)
dose: 6.25 mg/kg/injection, schedule: Q01DX009 (ip), vehicle: water
  T/C: 109 % of control
dose: 12.5 mg/kg/injection, schedule: Q01DX009 (ip), vehicle: water
  T/C: 104 % of control
dose: 25.0 mg/kg/injection, schedule: Q01DX009 (ip), vehicle: water
  T/C: 104 % of control and 109 % of control
dose: 25.75 mg/kg/injection, schedule: Q01DX009 (ip), vehicle: water
  T/C: 112 % of control
dose: 50.0 mg/kg/injection, schedule: Q01DX009 (ip), vehicle: water
  T/C: 99 % of control and 115 % of control and 116 % of control
dose: 51.5 mg/kg/injection, schedule: Q01DX009 (ip), vehicle: water
  T/C: 121 % of control
dose: 100.0 mg/kg/injection, schedule: Q01DX009 (ip), vehicle: water
  T/C: 118 % of control
dose: 103.0 mg/kg/injection, schedule: Q01DX009 (ip), vehicle: water
  T/C: 203 % of control
dose: 200.0 mg/kg/injection, schedule: Q01DX009 (ip), vehicle: water
  T/C: 91 % of control
dose: 400.0 mg/kg/injection, schedule: Q01DX009 (ip), vehicle: water
  T/C: 173 % of control

## COc1cc(CCN(C)C)c(C2C(=O)c3ccc4c(c3C2=O)OCO4)cc1OC (stereo not drawn)
dose: 0.15 mg/kg/injection, schedule: Q01DX005 (ip), vehicle: Klucel (hydroxypropylcellulose) (HPC)
  T/C: 103 % of control
dose: 0.3 mg/kg/injection, schedule: Q01DX005 (ip), vehicle: Klucel (hydroxypropylcellulose) (HPC)
  T/C: 104 % of control
dose: 0.6 mg/kg/injection, schedule: Q01DX005 (ip), vehicle: Klucel (hydroxypropylcellulose) (HPC)
  T/C: 100 % of control
dose: 1.2 mg/kg/injection, schedule: Q01DX005 (ip), vehicle: Klucel (hydroxypropylcellulose) (HPC)
  T/C: 99 % of control

## Nc1nc(N)c2cc(Sc3cccc(C(F)(F)F)c3)ccc2n1
dose: 100.0 mg/kg/injection, schedule: Q01DX009 (ip), vehicle: saline with Tween-80
  T/C: 172 % of control
dose: 200.0 mg/kg/injection, schedule: Q01DX009 (ip), vehicle: saline with Tween-80
  T/C: 94 % of control

## CCCC1(CCC)NC(=O)N(CC(=O)OCC)C1=O
dose: 100.0 mg/kg/injection, schedule: Q01DX001 (ip), vehicle: saline
  T/C: 105 % of control
dose: 200.0 mg/kg/injection, schedule: Q01DX001 (ip), vehicle: saline
  T/C: 110 % of control

## CCN(CC)CCCNc1c2c(nc3c(Cl)cccc13)CCCC2
[5]
  T/C: 100 % of control
[6]
  T/C: 100 % of control

## O=C(Nc1cccc([N+](=O)[O-])c1)C1C(=O)N(c2cccc([N+](=O)[O-])c2)C(=O)/C1=N/O (stereo not drawn)
[5]
  T/C: 99 % of control
[6]
  T/C: 95 % of control
dose: 200.0 mg/kg/injection, schedule: Q01DX005 (ip), vehicle: saline with Tween-80
  T/C: 100 % of control

## Brc1ccc(C(Nc2nncs2)Nc2nncs2)cc1
[7]
  T/C: 111 % of control
[8]
  T/C: 115 % of control
[9]
  T/C: 107 % of control

## COc1ccc(OC)c2c1nc(CBr)n2C
dose: 16.25 mg/kg/injection, schedule: Q01DX005 (ip), vehicle: DMSO
  T/C: 104 % of control
dose: 32.5 mg/kg/injection, schedule: Q01DX005 (ip), vehicle: DMSO
  T/C: 93 % of control

## C[n+]1cccc(C(=O)OCC(C)(C)N(Cl)Cl)c1
[2]
  T/C: 109 % of control

## CC1C(=O)CCC2C1(C)CCC1C2(C)CCC2(C)C3CC(C)(C(=O)O)CCC3(C)CCC12C (stereo not drawn)
dose: 12.5 mg/kg/injection, schedule: Q01DX005 (ip), vehicle: Klucel (hydroxypropylcellulose) (HPC)
  T/C: 94 % of control
dose: 25.0 mg/kg/injection, schedule: Q01DX005 (ip), vehicle: Klucel (hydroxypropylcellulose) (HPC)
  T/C: 100 % of control
dose: 50.0 mg/kg/injection, schedule: Q01DX005 (ip), vehicle: Klucel (hydroxypropylcellulose) (HPC)
  T/C: 88 % of control
dose: 100.0 mg/kg/injection, schedule: Q01DX005 (ip), vehicle: Klucel (hydroxypropylcellulose) (HPC)
  T/C: 87 % of control

## Cc1cc(N=[N+]=[N-])c2cc3c(cc2n1)OCO3
[7]
  T/C: 103 % of control
[8]
  T/C: 95 % of control
[9]
  T/C: 94 % of control

## COC(=O)C(=O)c1c(C(=O)OC)nc2nnc(N)n2c1-c1ccc(OC)cc1
[7]
  T/C: 100 % of control
[8]
  T/C: 107 % of control
[9]
  T/C: 96 % of control

## CCOCC(=O)OCC
[3]
  T/C: 105 % of control
[4]
  T/C: 101 % of control
dose: 400.0 mg/kg/injection, schedule: Q01DX009 (ip), vehicle: saline
  T/C: 102 % of control

## CC1=CC2C(=O)N(C)C1c1ccccc12 (stereo not drawn)
dose: 100.0 mg/kg/injection, schedule: Q04DX002 (ip), vehicle: Klucel (hydroxypropylcellulose) (HPC)
  T/C: 100 % of control
dose: 200.0 mg/kg/injection, schedule: Q04DX002 (ip), vehicle: Klucel (hydroxypropylcellulose) (HPC)
  T/C: 100 % of control
dose: 400.0 mg/kg/injection, schedule: Q04DX002 (ip), vehicle: Klucel (hydroxypropylcellulose) (HPC)
  T/C: 97 % of control

## C=[CH][Sn](=[O])[CH]=C
[2]
  T/C: 104 % of control
[3]
  T/C: 105 % of control and 89 % of control
[4]
  T/C: 104 % of control and 88 % of control

## CCCN=C(N)c1ccc(N=C(N)c2ccc(N=C(N)c3ccc(C(N)=NCCC)cc3)cc2)cc1
dose: 0.08 mg/kg/injection, schedule: Q01DX009 (ip), vehicle: saline
  T/C: 100 % of control
dose: 0.15 mg/kg/injection, schedule: Q01DX009 (ip), vehicle: saline
  T/C: 100 % of control
dose: 0.3 mg/kg/injection, schedule: Q01DX009 (ip), vehicle: saline
  T/C: 110 % of control
dose: 1.25 mg/kg/injection, schedule: Q01DX009 (ip), vehicle: saline
  T/C: 154 % of control
dose: 2.5 mg/kg/injection, schedule: Q01DX009 (ip), vehicle: saline
  T/C: 118 % of control
dose: 5.0 mg/kg/injection, schedule: Q04DX003 (ip), vehicle: saline with Tween-80
  T/C: 95 % of control
dose: 10.0 mg/kg/injection, schedule: Q01DX009 (ip), vehicle: saline
  T/C: 150 % of control
dose: 10.0 mg/kg/injection, schedule: Q04DX003 (ip), vehicle: saline with Tween-80
  T/C: 100 % of control
[1]
  T/C: 172 % of control
dose: 20.0 mg/kg/injection, schedule: Q01DX009 (ip), vehicle: saline with Tween-80
  T/C: 200 % of control
dose: 20.0 mg/kg/injection, schedule: Q04DX003 (ip), vehicle: saline with Tween-80
  T/C: 100 % of control

## NC(N)=NO
dose: 8.2 mg/kg/injection, schedule: Q01DX009 (ip), vehicle: water
  T/C: 110 % of control
dose: 12.0 mg/kg/injection, schedule: Q01DX009 (ip), vehicle: water
  T/C: 105 % of control
dose: 75.0 mg/kg/injection, schedule: Q01DX009 (ip), vehicle: saline
  T/C: 155 % of control
dose: 150.0 mg/kg/injection, schedule: Q01DX009 (ip), vehicle: saline
  T/C: 170 % of control

## COc1ccc2c(c1O)C1=CC(O)CCC13CCN(C)C3C2 (stereo not drawn)
dose: 100.0 mg/kg/injection, schedule: Q04DX002 (ip), vehicle: suspension in saline
  T/C: 100 % of control
dose: 200.0 mg/kg/injection, schedule: Q04DX002 (ip), vehicle: suspension in saline
  T/C: 96 % of control
dose: 400.0 mg/kg/injection, schedule: Q04DX002 (ip), vehicle: suspension in saline
  T/C: 103 % of control
